Laboratory results reported in patent US20230145305A1, “COMPOUNDS USEFUL AS KINASE INHIBITORS” (Fochon Biosciences, Ltd., priority 2020, published 2023).

test system: OCI-LY10 cells; assay: Cell proliferation assay (MTS) in OCI-LY10 cells; assay type: cell-based; conditions: Homo sapiens, OCI-Ly10, 72 h, read-out: OCI-LY10 IC50 (nM)
Description: MTS testing kit was purchased from Promega (Madison, Wis., USA). The RPMI-1640, Fetal bovine serum and Penicillin-Streptomycin were purchased from BI (Biological Industries, Beit Haemek, Israel). Dimethyl sulfoxide (DMSO) was purchased from Sigma (St. Louis., Mo., USA). […] To investigate whether a compound is able to inhibit the activity of BTK in cells, a mechanism-based assay using OCI-LY10 cells was developed. In this assay, inhibition of BTK was detected by the inhibition of OCI-LY10 cells proliferation. Cells were plated into 96-well plates at a density of 10000 cells/well. Plates were incubated at 37° C., with 5% CO2 for 4 h. […] Plates were incubated at 37° C., with 5% CO2 for 72 h. 20 μl MTS was added into each well and the plates were incubated at 37° C., with 5% CO2 for exactly 2 h. The absorbance was measured by a microplate reader at 490 nm. IC50 was calculated using GraphPad Prism 5.0 software. Select compounds prepared as described above were assayed according to the biological procedures described herein.

SMILES | IC50
COc1ccc(F)cc1C(=O)NCc1ccc(-c2nn(C3CCCC3)c3c(=O)[nH]nc(N)c23)cc1F [Example 62, N-(4-(4-amino-1-cyclopentyl-7-oxo-6,7-dihydro-1H-pyrazolo[3,4-d]pyridazin-3-yl)-2-fluorobenzyl)-5-fluoro-2-methoxybenzamide] | 1 nM

same assay, conditions: Homo sapiens; inhibition of OCI-LY10 cells proliferation, 72 h incubation, MTS, absorbance at 490 nm; read-out: OCI-LY10 IC50

SMILES | IC50
COc1ccc(F)cc1C(=O)NCc1ccc(-c2cn(C3CCCC3)c3c(=O)[nH]nc(N)c23)c(F)c1 [Example 31, N-(4-(4-amino-1-cyclopentyl-7-oxo-6,7-dihydro-1H-pyrrolo[2,3-d]pyridazin-3-yl)-3-fluorobenzyl)-5-fluoro-2-methoxybenzamide] | 1 nM
COc1ccc(F)cc1C(=O)NCc1ccc(-c2nn(C3CCC3)c3c(=O)[nH]nc(N)c23)cc1 [Example 65, N-(4-(4-amino-1-cyclobutyl-7-oxo-6,7-dihydro-1H-pyrazolo[3,4-d]pyridazin-3-yl)benzyl)-5-fluoro-2-methoxybenzamide] | 1 nM
COc1ncc(F)cc1C(=O)NCc1ccc(-c2nn(C3CCCC3)c3c(=O)[nH]nc(N)c23)cc1 [Example 61, N-(4-(4-amino-1-cyclopentyl-7-oxo-6,7-dihydro-1H-pyrazolo[3,4-d]pyridazin-3-yl)benzyl)-5-fluoro-2-methoxynicotinamide] | 15 nM
COc1ccc(F)cc1C(=O)NCc1ccc(-c2nn(C(C)C(C)(C)C)c3c(=O)[nH]nc(N)c23)cc1 (stereo not shown) [Example 70, N-(4-(4-amino-1-(3,3-dimethylbutan-2-yl)-7-oxo-6,7-dihydro-1H-pyrazolo[3,4-d]pyridazin-3-yl)benzyl)-5-fluoro-2-methoxybenzamide] | 1 nM
COc1ccc(F)cc1C(=O)NCc1ccc(-n2nc(C3CCCC3)c3c(=O)[nH]nc(N)c32)cc1 [Example 16, N-(4-(7-amino-3-cyclopentyl-4-oxo-4,5-dihydro-1H-pyrazolo[3,4-d]pyridazin-1-yl)benzyl)-5-fluoro-2-methoxybenzamide] | 1 nM
COc1ccc(F)cc1C(=O)NCc1ccc(-c2cn([C@@H]3CCN(C(=O)C4CC4)C3)c3c(=O)[nH]nc(N)c23)cc1 [Example 48, (R)-N-(4-(4-amino-1-(1-(cyclopropanecarbonyl)pyrrolidin-3-yl)-7-oxo-6,7-dihydro-1H-pyrrolo[2,3-d]pyridazin-3-yl)benzyl)-5-fluoro-2-methoxybenzamide] | 48 nM
COc1ccc(F)cc1C(=O)NCc1ccc(-c2cn(C3CCC3)c3c(=O)[nH]nc(N)c23)cc1 [Example 36, N-(4-(4-amino-1-cyclobutyl-7-oxo-6,7-dihydro-1H-pyrrolo[2,3-d]pyridazin-3-yl)benzyl)-5-fluoro-2-methoxybenzamide] | 1 nM
COc1ccc(F)cc1C(=O)NCc1ccc(-c2nn(C(C)(C)C)c3c(=O)[nH]nc(N)c23)cc1 [Example 66, N-(4-(4-amino-1-(tert-butyl)-7-oxo-6,7-dihydro-1H-pyrazolo[3,4-d]pyridazin-3-yl)benzyl)-5-fluoro-2-methoxybenzamide] | 1 nM
COc1ccc(F)cc1C(=O)NCc1ccc(-c2cn(C3CCCC3)c3c(=O)[nH]nc(N)c23)cc1F [Example 30, N-(4-(4-amino-1-cyclopentyl-7-oxo-6,7-dihydro-1H-pyrrolo[2,3-d]pyridazin-3-yl)-2-fluorobenzyl)-5-fluoro-2-methoxybenzamide] | 1 nM
COc1ccc(F)cc1C(=O)NCc1ccc(-n2cc(C3CCCC3)c3ncnc(N)c32)cc1 [Example 18, N-(4-(4-amino-7-cyclopentyl-5H-pyrrolo [3,2-d]pyrimidin-5-yl)benzyl)-5-flu oro-2-methoxybenzamide] | 1 nM
COC(=O)N1CC[C@@H](n2cc(-c3ccc(CNC(=O)c4cc(F)ccc4OC)cc3)c3c(N)n[nH]c(=O)c32)C1 [Example 49, methyl (R)-3-(4-amino-3-(4-((5-fluoro-2-methoxybenzamido)methyl)phenyl)-7-oxo-6,7-dihydro-1H-pyrrolo[2,3-d]pyridazin-1-yl)pyrrolidine-1-carboxylate] | 9 nM

Now from value to compound:

IC50 | SMILES
1 nM | COc1ccc(F)cc1C(=O)NCc1ccc(-c2nn(C3(C)CC3)c3c(=O)[nH]nc(N)c23)cc1 [Example 74, N-(4-(4-amino-1-(1-methylcyclopropyl)-7-oxo-6,7-dihydro-1H-pyrazolo[3,4-d]pyridazin-3-yl)benzyl)-5-fluoro-2-methoxybenzamide]
4 nM | COc1ccc(F)cc1C(=O)NCc1ccc(-c2nn(C3(C(F)(F)F)CC3)c3c(=O)[nH]nc(N)c23)cc1 [Example 87, N-(4-(4-amino-7-oxo-1-(1-(trifluoromethyl)cyclopropyl)-6,7-dihydro-1H-pyrazolo [3,4-d]pyridazin-3-yl)benzyl)-5-fluoro-2-methoxybenzamide]
1 nM | COc1ccc(F)cc1C(=O)NCc1ccc(-c2nn([C@H]3CCC[C@@H]3F)c3c(=O)[nH]nc(N)c23)cc1 [Example 80, N-(4-(4-amino-1-((1S,2S)-2-fluorocyclopentyl)-7-oxo-6,7-dihydro-1H-pyrazolo[3,4-d]pyridazin-3-yl)benzyl)-5-fluoro-2-methoxybenzamide]
22 nM | CC[C@@H](C)c1nn(-c2ccc(CNC(=O)c3cc(F)ccc3OC)cc2)c2c(N)n[nH]c(=O)c12 [Example 92b, (R)-N-(4-(7-amino-3-(sec-butyl)-4-oxo-4,5-dihydro-1H-pyrazolo[3,4-d]pyridazin-1-yl)benzyl)-5-fluoro-2-methoxybenzamide]
1 nM | COc1ccc(F)cc1C(=O)NCc1ccc(-c2nn(C3(C)CCC3)c3c(=O)[nH]nc(N)c23)cc1 [Example 73, N-(4-(4-amino-1-(1-methylcyclobutyl)-7-oxo-6,7-dihydro-1H-pyrazolo[3,4-d]pyridazin-3-yl)benzyl)-5-fluoro-2-methoxybenzamide]
12 nM | COc1ccc(F)cc1C(=O)NCc1ccc(-c2nn(C(C)CF)c3c(=O)[nH]nc(N)c23)cc1 (stereo not shown) [Example 75, N-(4-(4-amino-1-(1-fluoropropan-2-yl)-7-oxo-6,7-dihydro-1H-pyrazolo[3,4-d]pyridazin-3-yl)benzyl)-5-fluoro-2-methoxybenzamide]
1 nM | COc1ccc(F)cc1C(=O)NCc1ccc(-c2nn(C(C)C(F)F)c3c(=O)[nH]nc(N)c23)cc1 (stereo not shown) [Example 76, N-(4-(4-amino-1-(1,1-difluoropropan-2-yl)-7-oxo-6,7-dihydro-1H-pyrazolo [3,4-d]pyridazin-3-yl)benzyl)-5-fluoro-2-methoxybenzamide]
11 nM | COc1ccc(F)cc1C(=O)NCc1ccc(-c2cn([C@@H]3CCN(C(=O)OC4CC4)C3)c3c(=O)[nH]nc(N)c23)cc1 [Example 106, cyclopropyl (R)-3-(4-amino-3-(4-((5-fluoro-2-methoxybenzamido)methyl)phenyl)-7-oxo-6,7-dihydro-1H-pyrrolo[2,3-d]pyridazin-1-yl)pyrrolidine-1-carboxylate]
92 nM | COc1ccc(F)cc1C(=O)NCc1ccc(-n2nc(C3(F)CC3)c3c(=O)[nH]nc(N)c32)cc1 [Example 98, N-(4-(7-amino-3-(1-fluorocyclopropyl)-4-oxo-4,5-dihydro-1H-pyrazolo[3,4-d]pyridazin-1-yl)benzyl)-5-fluoro-2-methoxybenzamide]
23 nM | COc1ncc(F)cc1C(=O)NCc1ccc(-c2cn(C3CCCC3)c3c(=O)[nH]nc(N)c23)cc1 [Example 71, N-(4-(4-amino-1-cyclopentyl-7-oxo-6,7-dihydro-1H-pyrrolo[2,3-d]pyridazin-3-yl)benzyl)-5-fluoro-2-methoxynicotinamide]
4 nM | COc1ccc(F)cc1C(=O)NCc1ccc(-c2nn(C3(C(F)F)CC3)c3c(=O)[nH]nc(N)c23)cc1 [Example 84, N-(4-(4-amino-1-(1-(difluoromethyl)cyclopropyl)-7-oxo-6,7-dihydro-1H-pyrazolo[3,4-d]pyridazin-3-yl)benzyl)-5-fluoro-2-methoxybenzamide]
15 nM | COc1ccc(F)cc1C(=O)NCc1ccc(-n2nc(C3CCCC3(F)F)c3c(=O)[nH]nc(N)c32)cc1 (stereo not shown) [Example 90, N-(4-(7-amino-3-(2,2-difluorocyclopentyl)-4-oxo-4,5-dihydro-1H-pyrazolo [3,4-d]pyridazin-1-yl)benzyl)-5-fluoro-2-methoxybenzamide]
76 nM | COc1ccc(F)cc1C(=O)NCc1ccc(-n2c(=O)n(C3CCC3)c3c(=O)[nH]nc(N)c32)cc1 [Example 102, N-(4-(7-amino-3-cyclobutyl-2,4-dioxo-2,3,4,5-tetrahydro-1H-imidazo[4,5-d]pyridazin-1-yl)benzyl)-5-fluoro-2-methoxybenzamide]
1 nM | COc1ccc(F)cc1C(=O)NCc1ccc(-n2nc(C(C)C3CC3)c3c(=O)[nH]nc(N)c32)cc1 (stereo not shown) [Example 96, N-(4-(7-amino-3-(1-cyclopropylethyl)-4-oxo-4,5-dihydro-1H-pyrazolo[3,4-d]pyridazin-1-yl)benzyl)-5-fluoro-2-methoxybenzamide]
46 nM | COc1ccc(F)cc1C(=O)NCc1ccc(-c2nn(C(C)(C)CF)c3c(=O)[nH]nc(N)c23)cc1 [Example 83, N-(4-(4-amino-1-(1-fluoro-2-methylpropan-2-yl)-7-oxo-6,7-dihydro-1H-pyrazolo[3,4-d]pyridazin-3-yl)benzyl)-5-fluoro-2-methoxybenzamide]
14 nM | COc1ccc(F)cc1C(=O)NCc1ccc(-c2cn([C@@H]3CCN(S(=O)(=O)C(C)C)C3)c3c(=O)[nH]nc(N)c23)cc1 [Example 111, (R)-N-(4-(4-amino-1-(1-(isopropylsulfonyl)pyrrolidin-3-yl)-7-oxo-6,7-dihydro-1H-pyrrolo[2,3-d]pyridazin-3-yl)benzyl)-5-fluoro-2-methoxybenzamide]
